For orientation: IC50 means the concentration that inhibits the measured activity by half.

Molecules are shown by their SMILES.

Sequence of human HPK1 (MAP4K1) (Q92918 17-274): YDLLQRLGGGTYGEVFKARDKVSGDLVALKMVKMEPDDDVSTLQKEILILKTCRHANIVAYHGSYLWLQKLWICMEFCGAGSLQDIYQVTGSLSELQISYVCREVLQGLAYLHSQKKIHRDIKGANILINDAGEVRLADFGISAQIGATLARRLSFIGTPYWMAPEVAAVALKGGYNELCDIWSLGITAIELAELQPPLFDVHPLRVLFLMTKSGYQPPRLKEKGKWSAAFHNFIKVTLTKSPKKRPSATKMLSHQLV

The target of the test is human HPK1 (MAP4K1) (Homo sapiens (Human), UniProt Q92918). Description: HPK1 IC50 Assay (TR-FRET biochemical kinase assay, STK S1 peptide substrate). The note with it: recombinant human HPK1 kinase domain 0.15 nM, 10 μM ATP, 1 μM STK S1 peptide; geometric mean of multiple experiments. As to the method:
The enzymatic activity of human HPK1 (MAP4K1) was monitored in a biochemical assay in the presence or absence of compounds and using a synthetic peptide substrate. An increase in phosphorylation of the peptide by HPK1 was indicative of its kinase activity.
Recombinant HPK1 kinase domain produced via baculovirus infection of insect cells was obtained from Proteros (Proteros Biostructures #PR-0322) and was pre-activated in the presence of 2 mM ATP (Sigma-Aldrich, cat #GE27-2056-01) and 2 mM magnesium chloride for 16 hours at 4° C. The protein reaction mixture was then loaded to a desalting column (Thermo Fisher Scientific, Cat #89889) to remove excess ATP. HPK1 was eluted with buffer containing 20 mM Tris (2-Amino-2-(hydroxymethyl)propane-1,3-diol) pH 8.0, 150 mM NaCl, 2 mM dithiothreitol and 5% glycerol, and was frozen at −80° C. for later use.
Ten nanoliters of test compounds dissolved in DMSO at various concentrations were dispensed into a 384-well ProxiPlate (PerkinElmer #6008289). Five microliters of a solution of recombinant HPK1 diluted in HPK1 kinase assay buffer (50 mM BES [N,N-Bis(2-hydroxyethyl)-2-aminoethanesulfonic acid], pH 7.0; 10 mM magnesium chloride; 0.01% Triton X-100; 1 mM dithiothreitol; 0.01% bovine serum albumin; 0.1 mM sodium orthovanadate) was added to the compound-containing plate and was incubated for 15 minutes at 25° C. Five microliters of a mixture of ATP (Sigma-Aldrich #A6559) and peptide substrate STK S1 (Cisbio #61ST1BLC) diluted in HPK1 kinase assay buffer was then added to start the reaction. Final concentrations were 0.15 nM for HPK1, 10 μM for ATP, and 1 μM for the STK S1 peptide substrate. The reaction mixture was incubated at 25° C. for 3 hours and was stopped with the addition of 10 μl of an EDTA (Ethylenediaminetetraacetic acid)-containing detection buffer (Cisbio #62SDBRDF) supplemented with Europium cryptate-labeled anti-phospho-serine/threonine antibodies (Cisbio #62ST1PEJ) and XL665-labeled streptavidin (Cisbio #610SAXLG). The mixture was incubated for 16 hours at room temperature and peptide phosphorylation was measured by time-resolved fluorescence energy transfer (665 nm/620 nm) on an Envision plate reader (PerkinElmer).
Data in Table 1 were normalized based on positive (staurosporine) and negative (DMSO) controls. Least squares curve fittings were performed using a four-parameter variable slope nonlinear regression model. IC50 is defined as the concentration of compound required to inhibit 50% of maximum phosphorylation. IC50 values from multiple experiments were averaged by geometric mean and the standard deviation was calculated.
A general note: TR-FRET usually uses a lanthanide donor and a delayed reading to cut background.
For `CC(C)n1cnc2cc(-c3ccc4c(c3)N([C@H]3C[C@@H](N5CCCCC5)C3)C(=O)[C@@]4(C)O)nc(Nc3ccncc3F)c21` [Example 55A, 6-(4-((3-fluoropyridin-4-yl)amino)-3-isopropyl-3H-imidazo[4,5-c]pyridin-6-yl)-3-hydroxy-3-methyl-1-((1s,3s)-3-(piperidin-1-yl)cyclobutyl)indolin-2-one], the IC50 worked out at 1200 pM.

Consider `CC(C)n1cnc2cc(-c3ccc4c(c3)N([C@H]3C[C@@H](N5CCCCC5)C3)C(=O)[C@]4(C)O)nc(Nc3ccncc3F)c21` [Example 55B, 6-(4-((3-fluoropyridin-4-yl)amino)-3-isopropyl-3H-imidazo[4,5-c]pyridin-6-yl)-3-hydroxy-3-methyl-1-((1s,3s)-3-(piperidin-1-yl)cyclobutyl)indolin-2-one], for which the half-inhibitory concentration (IC50) came out at 2200 pM.

`CC(C)n1cnc2cc(-c3ccc4c(c3)N([C@H]3C[C@@H](N5CCC6(CC6)C5)C3)C(=O)C4(C)C)nc(Nc3ccncc3F)c21` [Example 56]: the concentration for half-maximal inhibition (IC50) stood at 800 pM.

`CC(C)n1cnc2cc(-c3ccc4c(c3)N([C@H]3C[C@@H](N5C[C@@H](C)[C@@H](C)C5)C3)C(=O)C4(C)C)nc(Nc3ccncc3F)c21` [Example 57]: the IC50 was 400 pM.

With `CC(C)n1cnc2cc(-c3ccc4c(c3)N([C@H]3C[C@@H](N5CC6CCC5CC6)C3)C(=O)C4(C)C)nc(Nc3ccncc3F)c21` [Example 58], the half-inhibitory concentration (IC50) was 700 pM.

With `CC(C)n1cnc2cc(-c3ccc4c(c3)N([C@H]3C[C@@H](N5CCCCCC5)C3)C(=O)C4(C)C)nc(Nc3ccncc3F)c21` [Example 59], the IC50 is 90 pM.

On to `CC(C)n1cnc2cc(-c3ccc4c(c3)N([C@H]3C[C@@H](N5CC6C(C5)C6(C)C)C3)C(=O)C4(C)C)nc(Nc3ccncc3F)c21` (stereo partly shown) [Example 60], for which the 50% inhibitory concentration (IC50) came out at 300 pM.

For the compound `CC(C)n1cnc2cc(-c3ccc4c(c3)N([C@H]3C[C@@H](N5CC6CC6C5)C3)C(=O)C4(C)C)nc(Nc3ccncc3F)c21` (stereo partly shown) [Example 61], the half-inhibitory concentration (IC50) came to 800 pM.

Take `CC(C)n1cnc2cc(-c3ccc4c(c3)N([C@H]3C[C@@H](N5CC6CCC(C6)C5)C3)C(=O)C4(C)C)nc(Nc3ccncc3F)c21` [Example 62]: the IC50 amounted to 50 pM.

With `[2H]C1([2H])N([C@H]2C[C@@H](N3C(=O)C(C)(C)c4ccc(-c5cc6ncn(C(C)C)c6c(Nc6ccncc6F)n5)cc43)C2)C([2H])([2H])C([2H])([2H])C([2H])([2H])C1([2H])[2H]` [Example 63], the IC50 was 300 pM.

With `CC(C)n1cnc2cc(-c3ccc4c(c3)N([C@H]3C[C@@H](NCC(C)(C)F)C3)C(=O)C4(C)C)nc(Nc3ccncc3F)c21` [Example 64], the concentration for half-maximal inhibition (IC50) was 1300 pM.

For `CC(C)n1cnc2cc(-c3ccc4c(c3)N([C@H]3C[C@@H](N5CCCCC5)C3)C(=O)C4(C)C)nc(Nc3c(F)cncc3F)c21` [Example 65], the half-maximal inhibitory concentration (IC50) was found to be 700 pM.

`CC(C)n1cnc2cc(-c3ccc4c(c3)N([C@H]3C[C@@H](N5C[C@H]6CC[C@@H]5C6)C3)C(=O)C4(C)C)nc(Nc3ccncc3F)c21` [Example 66]: the half-inhibitory concentration (IC50) stood at 700 pM.

Consider `CC(=O)N1CCC2(CC1)C(=O)N([C@H]1C[C@@H](N3CCCCC3)C1)c1cc(-c3cc4ncn(C(C)C)c4c(Nc4ccncc4F)n3)ccc12` [Example 67, 1′-acetyl-6-(4-((3-fluoropyridin-4-yl)amino)-3-isopropyl-3H-imidazo[4,5-c]pyridin-6-yl)-1-((1s,3s)-3-(piperidin-1-yl)cyclobutyl)spiro[indoline-3,4′-piperidin]-2-one], for which the half-inhibitory concentration (IC50) was found to be 500 pM.

`CC(C)n1cnc2cc(-c3ccc4c(c3)N([C@H]3C[C@@H](N5CCCCC5)C3)C(=O)C43CCN(C(=O)[C@@H](C)O)CC3)nc(Nc3ccc(F)nc3F)c21` [Example 68]: the IC50 amounted to 100 pM.

Regarding `CC(=O)N1CCC2(CC1)C(=O)N([C@H]1C[C@@H](N3CCCCC3)C1)c1cc(-c3cc4ncn(C(C)C)c4c(Nc4ncc(F)cc4F)n3)ccc12` [Example 69], the half-maximal inhibitory concentration (IC50) came to 5600 pM.

In the case of `CC(=O)N1CCC2(CC1)C(=O)N([C@H]1C[C@@H](N3CCCCC3)C1)c1cc(-c3cc4ncn(C(C)C)c4c(Nc4ccc(F)nc4F)n3)ccc12` [Example 70], the half-maximal inhibitory concentration (IC50) was 100 pM.

In the case of `CC(C)n1cnc2cc(-c3ccc4c(c3)N([C@H]3C[C@@H](N5CCC(C)(C)C5)C3)C(=O)C43CCOCC3)nc(Nc3ccncc3F)c21` [Example 71], the IC50 amounted to 200 pM.

With `CC[C@H](C)n1cnc2cc(-c3ccc4c(c3)N([C@H]3C[C@@H](N5CCCCC5)C3)C(=O)C43CCN(C(C)=O)CC3)nc(Nc3ccncc3F)c21` [Example 72], the half-inhibitory concentration (IC50) was determined as 700 pM.

With `CCn1cnc2cc(-c3ccc4c(c3)N([C@H]3C[C@@H](N5CCCCC5)C3)C(=O)C43CCN(C(=O)[C@@H](C)O)CC3)nc(Nc3ccc(F)nc3F)c21` [Example 73], the IC50 was 200 pM.

For the compound `CC(=O)N1CCC2(CC1)C(=O)N([C@H]1C[C@@H](N3CCCCC3)C1)c1cc(-c3cc4ncn(C(C)C)c4c(Nc4cc(C(=O)NC(C)C)ncc4F)n3)ccc12` [Example 74], the 50% inhibitory concentration (IC50) was 6600 pM.

Take `CC(C)n1cnc2cc(-c3ccc4c(c3)N([C@H]3C[C@@H](N5CCC(C)(C)C5)C3)C(=O)C43CCN(C4COC4)CC3)nc(Nc3ccncc3F)c21` [Example 75]: the IC50 is 400 pM.

`CC(C)n1cnc2cc(-c3ccc4c(c3)N([C@H]3C[C@@H](N5CCC(C)(C)C5)C3)C(=O)C43CCN(C(=O)C4COC4)CC3)nc(Nc3ccncc3F)c21` [Example 76]: the IC50 amounted to 500 pM.

In the case of `CC(C)n1cnc2cc(-c3ccc4c(c3)N([C@H]3C[C@@H](N5CCC(C)(C)C5)C3)C(=O)C43CCN(C(=O)C4(C)COC4)CC3)nc(Nc3ccncc3F)c21` [Example 77], the half-maximal inhibitory concentration (IC50) was found to be 400 pM.

For the compound `CC(C)n1cnc2cc(-c3ccc4c(c3)N([C@H]3C[C@@H](N5CCC[C@@H](F)C5)C3)C(=O)C43CCN(C4COC4)CC3)nc(Nc3ccncc3F)c21` [Example 79], the IC50 is 400 pM.

Take `CC(C)n1cnc2cc(-c3ccc4c(c3)N([C@H]3C[C@@H](N5CCCC(C)(F)C5)C3)C(=O)C43CCN(C4COC4)CC3)nc(Nc3ccncc3F)c21` (stereo partly shown) [Example 80]: the IC50 is 400 pM.

Consider `CC(C)n1cnc2cc(-c3ccc4c(c3)N([C@H]3C[C@@H](N5CCCC(C)(C)C5)C3)C(=O)C4(C)C)nc(Nc3ccc(=O)n(C)c3)c21` [Example 81], for which the IC50 worked out at 200 pM.

For `CC(C)n1cnc2cc(-c3ccc4c(c3)N([C@H]3C[C@@H](N5CCCC(C)(C)C5)C3)C(=O)C4(C)C)nc(Nc3ccc(=O)[nH]c3)c21` [Example 82], the IC50 is 100 pM.

For the compound `CC(C)n1cnc2cc(-c3ccc4c(c3)N([C@H]3C[C@@H](N5CCCCC5)C3)C(=O)C4(C)C)nc(Nc3ccncc3F)c21` [Example 83], the concentration for half-maximal inhibition (IC50) turned out to be 800 pM.

As for `CC(C)CN[C@H]1C[C@@H](N2C(=O)C(C)(C)c3ccc(-c4cc5ncn(C(C)C)c5c(Nc5ccncc5F)n4)cc32)C1` [Example 84], the IC50 is 1700 pM.

Regarding `CCn1cnc2cc(-c3ccc4c(c3)N([C@H]3C[C@@H](N5CC(C)(C)C5)C3)C(=O)C4(C)C)nc(Nc3ccncc3F)c21` [Example 85], the concentration for half-maximal inhibition (IC50) was 2500 pM.

Take `CC(C)n1cnc2cc(-c3ccc4c(c3)N([C@H]3C[C@@H](N5CC[C@](C)(F)C5)C3)C(=O)C43CCN(C4COC4)CC3)nc(Nc3ccncc3F)c21` [Example 86]: the IC50 stood at 600 pM.

With `CCn1cnc2cc(-c3ccc4c(c3)N([C@H]3C[C@@H](N5CCC(C)(C)C5)C3)C(=O)C43CCN(C4COC4)CC3)nc(Nc3ccncc3F)c21` [Example 87], the 50% inhibitory concentration (IC50) worked out at 700 pM.

Take `CNC(=O)c1cc(Nc2nc(-c3ccc4c(c3)N([C@H]3C[C@@H](N5CCCCC5)C3)C(=O)C4(C)C)cc3ncn(C(C)C)c23)c(F)cn1` [Example 88]: the IC50 was 8200 pM.

`CC[C@H](C)n1cnc2cc(-c3ccc4c(c3)N([C@H]3C[C@@H](N5CCCCC5)C3)C(=O)C43CCN(C4COC4)CC3)nc(Nc3ccncc3F)c21` [Example 89]: the IC50 was 500 pM.

For `CC[C@H](C)n1cnc2cc(-c3ccc4c(c3)N([C@H]3C[C@@H](N5CCC(C)(C)C5)C3)C(=O)C43CCN(C4COC4)CC3)nc(Nc3ccncc3F)c21` [Example 90], the IC50 was 300 pM.

`CC(C)n1cnc2cc(-c3ccc4c(c3)N([C@H]3C[C@@H](N5CCCCC5)C3)C(=O)C43CCN(C4COC4)CC3)nc(Nc3ccnc(F)c3F)c21` [Example 91, 6-(4-((2,3-difluoropyridin-4-yl)amino)-3-isopropyl-3H-imidazo[4,5-c]pyridin-6-yl)-1′-(oxetan-3-yl)-1-((1s,3s)-3-(piperidin-1-yl)cyclobutyl)spiro[indoline-3,4′-piperidin]-2-one]: the half-inhibitory concentration (IC50) stood at 200 pM.
